EP0702683B1, “06-SUBSTITUTED GUANINE DERIVATIVES, A PROCESS FOR THEIR PREPARATION AND THEIR USE IN TREATING TUMOUR CELLS” (Cancer Research Technology Limited, priority 1993, dated 1994)
Where two headings read alike, the source gives them in different places.

How the values were obtained:
Raji cells [1] = test: Sensitization of Raji cells to BCNU (XTT assay); type: cell-based, human; settings: BCNU, 2 hour pretreatment; for Raji sensitization (D90.^C/D90.^I) 0.5µM: inactivator 0.5µM; for Raji sensitization (D90.^C/D90.^I) 1.0µM: inactivator 1.0µM; for Raji sensitization (D90.^C/D90.^I) O.1µM: inactivator O.1µM
Procedure: (§1) Following a 2 hour incubation at 37°C, medium containing either increasing doses of BCNU, temozolomide or equivalent vehicle was added and the cells allowed to grow for 6 days. At this time XTT solution was added and the cells incubated for a further 4 hours at 37°C. The resulting red/orange formazan reaction product was quantified by measuring absorption at 450nm on a microtitre platereader.

ATase [2] = target: T1, ATase (Homo sapiens, UniProt P16455); test: In vitro ATase inactivation assay with purified recombinant human ATase; type: biochemical; parameters: made in house
T1 sequence (P16455 1-207): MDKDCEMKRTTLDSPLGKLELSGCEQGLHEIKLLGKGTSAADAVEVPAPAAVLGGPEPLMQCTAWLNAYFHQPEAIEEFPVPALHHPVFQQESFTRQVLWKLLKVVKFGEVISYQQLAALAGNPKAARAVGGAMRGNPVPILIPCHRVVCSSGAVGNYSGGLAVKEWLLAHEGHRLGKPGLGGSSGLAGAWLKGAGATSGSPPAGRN
Procedure: The cDNA cloning and overexpression of the human ATase has been reported previously^23. Purification of the recombinant proteins was achieved either by affinity chromatography through a DNA-cellulose column as described by Wilkinson et al.,^25, 26, or by DEAE-cellulose ion-exchange chromatography. For the latter, the ATase protein was partially purified by ammonium sulphate precipitation (30 - 60%) and dialysed against 10 mM Tris-HCl pH 7.5, 1 mM DTT, 2 mM EDTA, 10% glycerol, before loading on a DEAF-cellulose column. The ATase was then eluted with a 0-0.1 M NaCl gradient.
Compounds to be tested were dissolved in DMSO to a final concentration of 10 mM and diluted just before use in buffer I containing 1 mg/ml bovine serum albumin (IBSA). Recombinant ATase was diluted in IBSA and titrated in order that the reaction be conducted under ATase, and not substrate, limiting conditions. In each assay, fixed amounts of ATase (60-75 fmol) were incubated with varying amounts of 0^6-benzylguanine, or test compound in a total volume of 200 µl of IBSA containing 10 µg of calf thymus DNA at 37°C for 1 hour. The [^3H]-methylated-DNA substrate (100 µl containing 6.7 µg of DNA and 100 fmol of 0^6-methylguanine) was added and incubation continued at 37° for 1 hour, until the reaction was completed. Following acid hydrolysis of the DNA as previously described^21 the [^3H]-methylated protein was recovered and quantitated by liquid scintillation counting. Samples were typically assayed in duplicate and experiments repeated several times. I50 is the concentration of inactivator required to produce a 50% reduction in ATase activity.

[3] = Stability of inactivators at 37°C (spectrophotometric half life); type: physicochemical
Procedure: Inactivators (10mM in DMSO) were diluted to 0.1mM in prewarmed degassed buffer I (1mM EDTA, 50mM Tris pH 8.3) or PBS (pH 7-7.2). […] Samples were immediately transferred to a CARY13 spectrophotometer (cuvette block held at 37°C) and scanned at an appropriate wavelength (according to the spectral properties of the compound) at 3-10 minute intervals for up to 80 hours. The results were expressed as percentage absorbance change versus time and T1/2 values (half life) extrapolated from this.

ATase [4] = target: T1, ATase; test: Inactivation of ATase activity in Raji cells; type: cell-based; parameters: endogenous in cells; host or cells: Raji; settings: Raji cells, 2 hours at 37°C; read-out: Raji I50
Procedure: (§2) Mammalian cells were cultured under standard conditions. For example, Raji (a human lymphoblastoid cell line from a Burkitt's lymphoma) cells were grown in suspension culture in RPMI medium supplemented with 10% horse serum. A375M cells are human melanoma cells from which the xenografts described below were established following subcutaneous injection into nude mice: WiDr cells are a human colon carcinoma cell line: Hamster+120 cells are a mitozolomide-selected subline of a Chinese hamster lung fibroblast V79 cell line called RJKO: Yoshida cells are a rat carcinosarcoma cell line and YRbus is a busulphan resistant subline thereof: XP cells are an SV40-transformed fibroblast cell line originally from the skin of a Xeroderma pigmentosum patient, pHMGhAT2b cells are a clone of these cells that have been transfected with a mammalian cell expression vector containing the human ATase cDNA and pHMGla cells are a clone that have been transfected with the expression vector only (i.e. one not containing the human ATase cDNA). Cell pellets were resuspended in cold (4°C) buffer I containing 2 µg/ml leupeptin and sonicated for 10 seconds at 12 µ peak to peak distance. After cooling in ice, the cells were sonicated for a further 10 seconds at 18 µ. Immediately after sonication, 0.01 volumes of 8.7 mg/ml phenylmethanesulphonylfluoride in ethanol was added and the sonicates centrifuged at 15 000 g for 10 minutes at 4°C to pellet cell debris. The supernatant was kept for determination of ATase activity (see below).
(§3) Cells were diluted to 10^6/ml in culture medium containing either the appropriate concentration of inactivator or an equivalent volume of vehicle (DMSO). Following incubation at 37°C for 2 hours the cells were harvested by centrifugation, washed twice with PBS and the resulting cell pellets (between 1-2 x 10^7 per pellet) stored at -20°C.

A375M cells = test: Sensitization of A375M cells to BCNU (MTT assay); type: cell-based, human; settings: for A375M sensitization (D50.^C/D50.^I) 1.0uM: inactivator 1.0uM 2 hours before; for A375M sensitization (D50.^C/D50.^I) 0.5uM: inactivator 0.5uM 2 hours before; for A375M sensitization (D50.^C/D50.^I) 5.0uM: inactivator 5.0uM 2 hours before
Procedure: Sensitization of A375M cells to the cytotoxic effects of BCNU was analysed by MTT assay ^24 differing from the XTT assay described above as follows. […] After 6 days MTT solution (4mg/ml) was added and cells incubated for 3 hours at 37°C. Medium was aspirated and the resulting purple formazan crystals were solubilised in DMSO (120μl) and cell viability was quantified by measuring absorption at 540nm using a microtitre plate reader.

Raji cells [5] = test: Sensitization of Raji cells to temozolomide (XTT assay); type: cell-based, human; settings: inactivator 0.1 to 5.0µM, Figures 3 and 4, in words
Procedure: as §1

human bone marrow cells = test: Sensitization of bone marrow cells to temozolomide (GM-CFC assay); type: cell-based; settings: three samples tested (BeG: all three; B.4205: two of these), Fig. 14, in words
From the text: For the granulocyte/macrophage colony-forming cell (GM-CFC) assay primary human bone marrow samples were obtained from patients undergoing cardiothoracic surgery. […] The colonies represented precursor cells of the granulocyte/macrophage lineage (huGM-CFC). Survival was expressed as a % of the number of colonies at zero dose temozolomide.

ATase [6] = target: T2, ATase (Rattus norvegicus, UniProt P24528); test: Inactivation of ATase activity in Yoshida cells; type: cell-based
T2 construct: endogenous in cells; host or cells: Yoshida
T2 sequence (P24528 1-209): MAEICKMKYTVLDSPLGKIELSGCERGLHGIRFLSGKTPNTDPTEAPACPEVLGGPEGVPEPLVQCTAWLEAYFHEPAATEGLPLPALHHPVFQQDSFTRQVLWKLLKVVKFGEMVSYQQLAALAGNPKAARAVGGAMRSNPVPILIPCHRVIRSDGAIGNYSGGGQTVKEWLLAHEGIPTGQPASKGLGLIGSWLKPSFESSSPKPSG
Procedure: as §2
as §3, with “-20°C. ATase activity was determined as described above, in duplicate sonicated cell extracts and expressed as the percentage activity remaining based on that present in the untreated controls (for example 350-450 fm/mg in Raji cells).” for “-20°C.”

[7] = Inactivator toxicity in bone marrow cells (GM-CFC colonies, inactivator alone); type: cell-based, human; settings: human, bone marrow gm-cfc, inactivator 10uM, read-out: No. of colonies as % of control (ie no inactivator)
From the text: For the granulocyte/macrophage colony-forming cell (GM-CFC) assay primary human bone marrow samples were obtained from patients undergoing cardiothoracic surgery. […] The colonies represented precursor cells of the granulocyte/macrophage lineage (huGM-CFC). […]

[8] = Toxicity of inactivator in combination with BCNU in xenograft-bearing mice (survival); type: in vivo, nude mice; settings: mouse, in vivo, ip; in combination with BCNU, Figs. 9-13; read-out: death of treated animals
Procedure: 0X6 OPT, England (OLAC mice). […] For this reason lower doses were administered.
Xenograft tumour measurements were taken every 1-2 days by workers using digital calipers. Tumour volume was calculated using the formula (h x w x 1) π/6. The experimental animals were also weighed every 1-2 days. Measurements continued until tumours in the control animals reached the maximum allowable volume (i.e. 1cm x 1cm x 1cm).

[9] = 0.1mM in PBS (pH 7-7.2), read-out: T1/2(h) in PBS (converted)
[10] = 0.1mM in buffer I (1mM EDTA, 50mM Tris pH 8.3), read-out: T1/2(h) in Buffer I (converted)

## Cc1ccsc1COc1nc(N)nc2[nH]cnc12 [B.4222, O^6-(3-methylthenyl)guanine]
Raji cells [1]
  Raji sensitization (D90.^C/D90.^I) 0.5µM: 1.9
  Raji sensitization (D90.^C/D90.^I) 1.0µM: 2.1
  Raji sensitization (D90.^C/D90.^I) O.1µM: 1.4
ATase [2]
  IC50: 650 nM
[3]; [9]
  half-life at 100 µM: > 16 h
ATase [4]
  IC50: 470 nM
A375M cells
  A375M sensitization (D50.^C/D50.^I) 1.0uM: 1.4

## Nc1nc(OCc2cc3ccccc3s2)c2nc[nH]c2n1 [B.4226, O^6-(2-benzo[b]thienylmethyl)guanine]
Raji cells [1]
  Raji sensitization (D90.^C/D90.^I) 0.5µM: 1.6
  Raji sensitization (D90.^C/D90.^I) 1.0µM: 10.0
  Raji sensitization (D90.^C/D90.^I) O.1µM: 1.6
ATase [2]
  IC50: 30 nM
[3]; [9]
  half-life at 100 µM: 6.7 h
[3]; [10]
  half-life at 100 µM: 9.7 h
ATase [4]
  IC50: 60 nM
A375M cells
  A375M sensitization (D50.^C/D50.^I) 0.5uM: 3.8
  A375M sensitization (D50.^C/D50.^I) 5.0uM: 4.5

## COC(=O)c1ccc(COc2nc(N)nc3[nH]cnc23)o1 [B.4229, O^6-(5-methoxycarbonylfurfuryl)guanine]
Raji cells [1]
  Raji sensitization (D90.^C/D90.^I) 0.5µM: 2.1
  Raji sensitization (D90.^C/D90.^I) 1.0µM: 2.5
  Raji sensitization (D90.^C/D90.^I) O.1µM: 1.2
ATase [2]
  IC50: 90 nM
[3]; [9]
  half-life at 100 µM: > 16 h
ATase [4]
  IC50: 250 nM
A375M cells
  A375M sensitization (D50.^C/D50.^I) 1.0uM: 1.8

## Nc1nc(OCc2ccc(C(=O)O)o2)c2nc[nH]c2n1 [B.4234, O^6-(5-carboxyfurfuryl)guanine]
Raji cells [1]
  Raji sensitization (D90.^C/D90.^I) 0.5µM: 1.0
  Raji sensitization (D90.^C/D90.^I) 1.0µM: 1.0
  Raji sensitization (D90.^C/D90.^I) O.1µM: 1.0
ATase [2]
  IC50: 60000 nM
[3]; [9]
  half-life at 100 µM: > 16 h
ATase [4]
  IC50: > 1000 nM
A375M cells
  A375M sensitization (D50.^C/D50.^I) 1.0uM: 0.8

## Nc1nc(OCc2ccccc2)c2nc[nH]c2n1 [O^6-benzylguanine, reference compound]
Raji cells [5]
  dose response of sensitization of Raji cells to temozolomide: clear dose response
Human bone marrow cells
  sensitization of GM-CFCs in human bone marrow samples to the toxic effects of temozolomide: sensitised
ATase [6]
  IC50: 140 nM
Raji cells [1]
  Raji sensitization (D90.^C/D90.^I) 0.5µM: *2.0 ± 0.4
  Raji sensitization (D90.^C/D90.^I) 1.0µM: *3.8 ± 1.8
  Raji sensitization (D90.^C/D90.^I) O.1µM: *1.9 ± 0.7
[7]; Patient A
  viability at 216 h, 10 µM: 95%
[7]; Patient B
  viability at 216 h, 10 µM: 46%
[7]; Patient C
  viability at 216 h, 10 µM: 88%
[7]; Patient D
  viability at 216 h, 10 µM: 88%
[7]; Patient E
  viability at 216 h, 10 µM: 89%
[3]; [9]
  half-life at 100 µM: > 16 h
[3]; [10]
  half-life at 100 µM: > 64 h
[8]
  mortality: ≤ 70%
A375M cells
  A375M sensitization (D50.^C/D50.^I) 0.5uM: 3.1
  A375M sensitization (D50.^C/D50.^I) 1.0uM: 2.3
  A375M sensitization (D50.^C/D50.^I) 5.0uM: 4.2
